Measured values reported in ChEMBL document CHEMBL1909046, “DrugMatrix in vitro pharmacology data”.

Key:
[1] = target: T1, 3-hydroxy-3-methylglutaryl-coenzyme A reductase (Homo sapiens, UniProt P04035); parameters: species or system Escherichia coli;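 note: enzyme inhibition assay of HMG-CoA reductase using radiolabeled [14C]HMG-CoA as substrate; in other assays of this panel Not Active means under 50% inhibition at 10 µM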
T1 sequence (P04035 whole entry): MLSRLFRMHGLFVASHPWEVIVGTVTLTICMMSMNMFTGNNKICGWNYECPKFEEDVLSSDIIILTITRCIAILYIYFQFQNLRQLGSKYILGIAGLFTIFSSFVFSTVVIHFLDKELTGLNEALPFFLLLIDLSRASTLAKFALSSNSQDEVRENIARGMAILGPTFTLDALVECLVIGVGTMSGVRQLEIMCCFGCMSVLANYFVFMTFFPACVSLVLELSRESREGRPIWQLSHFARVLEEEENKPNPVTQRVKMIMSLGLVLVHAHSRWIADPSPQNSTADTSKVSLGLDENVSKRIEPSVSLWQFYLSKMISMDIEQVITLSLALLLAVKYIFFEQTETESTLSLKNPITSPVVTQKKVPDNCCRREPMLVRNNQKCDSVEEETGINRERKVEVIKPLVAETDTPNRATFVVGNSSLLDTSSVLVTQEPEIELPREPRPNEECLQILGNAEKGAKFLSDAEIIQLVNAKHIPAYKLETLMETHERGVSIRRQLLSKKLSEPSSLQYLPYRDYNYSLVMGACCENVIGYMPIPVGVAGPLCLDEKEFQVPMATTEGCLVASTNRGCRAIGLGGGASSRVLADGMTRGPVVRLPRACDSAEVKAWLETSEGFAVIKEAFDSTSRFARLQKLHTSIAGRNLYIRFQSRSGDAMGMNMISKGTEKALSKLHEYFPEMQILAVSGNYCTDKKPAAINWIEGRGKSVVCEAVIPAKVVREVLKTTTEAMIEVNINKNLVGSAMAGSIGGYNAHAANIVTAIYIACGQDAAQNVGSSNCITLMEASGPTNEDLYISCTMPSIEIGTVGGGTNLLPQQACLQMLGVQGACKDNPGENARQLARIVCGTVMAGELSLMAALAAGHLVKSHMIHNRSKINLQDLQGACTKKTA

[2] = target: T2, Cysteinyl leukotriene receptor 1 (Homo sapiens, UniProt Q9Y271); format: cell membranes, CHO-K1, Membrane; conditions: cho-k1; note: in other assays of this panel Not Active means under 50% inhibition at 10 µM
T2 sequence (Q9Y271 whole entry): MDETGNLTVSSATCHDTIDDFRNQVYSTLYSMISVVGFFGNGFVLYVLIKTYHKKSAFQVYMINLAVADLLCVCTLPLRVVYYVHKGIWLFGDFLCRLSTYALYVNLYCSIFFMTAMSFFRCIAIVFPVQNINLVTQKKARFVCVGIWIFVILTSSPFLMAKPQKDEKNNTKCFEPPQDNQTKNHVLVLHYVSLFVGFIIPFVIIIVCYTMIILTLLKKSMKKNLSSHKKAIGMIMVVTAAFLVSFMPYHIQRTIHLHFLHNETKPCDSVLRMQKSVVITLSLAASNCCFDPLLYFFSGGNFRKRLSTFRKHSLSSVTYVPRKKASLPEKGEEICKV

[3] = DRUGMATRIX: Interleukin IL-1 radioligand binding (ligand: [125I] interleukin 1beta); format: cell membranes, Membrane; conditions: nih3t3; Not Active = under 50% inhibition at 10 µM
[4] = target: cGMP-specific 3',5'-cyclic phosphodiesterase (Homo sapiens, UniProt O76074); test: DRUGMATRIX: Phosphodiesterase PDE5 enzyme inhibition (substrate: [3H]cGMP + cGMP); format: tissue-based; conditions: platelet; Not Active = under 50% inhibition at 10 µM
Acetylcholinesterase = Acetylcholinesterase (Homo sapiens, UniProt P22303); test: DRUGMATRIX: Acetylcholinesterase enzyme inhibition (substrate: acetylthiocholine); format: cell-based, HEK293; conditions: hek293; Not Active = under 50% inhibition at 10 µM
[5] = DRUGMATRIX: Glutamate, NMDA, Agonism radioligand binding (ligand: [3H] CGP-39653); format: cell membranes, Rattus norvegicus, Wistar, Cerebral cortex, Membrane; conditions: Not Active = under 50% inhibition at 10 µM
[6] = DRUGMATRIX: Glutamate, Kainate radioligand binding (ligand: [3H] Kainic acid); format: cell membranes, Rattus norvegicus, Wistar, Brain, Membrane; conditions: Not Active = under 50% inhibition at 10 µM
Adenosine receptor A1 = target: T3, Adenosine receptor A1 (Homo sapiens, UniProt P30542); format: cell membranes, CHO, Membrane; conditions: cho;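 note: radioligand binding assay at the adenosine A1 receptor, with DPCPX serving as the labelled ligand; in other assays of this panel Not Active means under 50% inhibition at 10 µM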
T3 sequence (P30542 whole entry): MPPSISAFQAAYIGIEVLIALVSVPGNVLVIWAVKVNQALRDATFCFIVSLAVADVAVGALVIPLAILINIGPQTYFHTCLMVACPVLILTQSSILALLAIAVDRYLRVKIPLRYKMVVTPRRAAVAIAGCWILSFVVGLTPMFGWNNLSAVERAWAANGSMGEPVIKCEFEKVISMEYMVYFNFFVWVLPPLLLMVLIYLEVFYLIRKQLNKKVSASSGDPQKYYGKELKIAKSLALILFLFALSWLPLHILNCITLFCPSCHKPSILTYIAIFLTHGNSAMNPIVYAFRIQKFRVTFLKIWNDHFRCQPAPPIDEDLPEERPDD

Endothelin-1 receptor = target: T4, Endothelin-1 receptor (Homo sapiens, UniProt P25101); format: cell membranes, CHO-K1, Membrane; conditions: cho-k1; note: in other assays of this panel Not Active means under 50% inhibition at 10 µM
T4 sequence (P25101 whole entry): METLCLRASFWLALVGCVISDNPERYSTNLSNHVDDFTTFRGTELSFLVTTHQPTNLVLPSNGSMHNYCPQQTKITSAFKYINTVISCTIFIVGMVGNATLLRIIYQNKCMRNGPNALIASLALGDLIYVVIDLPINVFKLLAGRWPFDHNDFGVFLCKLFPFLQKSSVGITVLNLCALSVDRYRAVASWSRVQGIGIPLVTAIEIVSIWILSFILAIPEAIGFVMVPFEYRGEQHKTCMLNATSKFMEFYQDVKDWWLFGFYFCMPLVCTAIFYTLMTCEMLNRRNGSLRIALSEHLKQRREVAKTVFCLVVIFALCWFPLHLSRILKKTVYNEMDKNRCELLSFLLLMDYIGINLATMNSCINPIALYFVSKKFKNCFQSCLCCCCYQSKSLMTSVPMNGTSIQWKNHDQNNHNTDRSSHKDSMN

Chain of Acetylcholinesterase (P22303 whole entry): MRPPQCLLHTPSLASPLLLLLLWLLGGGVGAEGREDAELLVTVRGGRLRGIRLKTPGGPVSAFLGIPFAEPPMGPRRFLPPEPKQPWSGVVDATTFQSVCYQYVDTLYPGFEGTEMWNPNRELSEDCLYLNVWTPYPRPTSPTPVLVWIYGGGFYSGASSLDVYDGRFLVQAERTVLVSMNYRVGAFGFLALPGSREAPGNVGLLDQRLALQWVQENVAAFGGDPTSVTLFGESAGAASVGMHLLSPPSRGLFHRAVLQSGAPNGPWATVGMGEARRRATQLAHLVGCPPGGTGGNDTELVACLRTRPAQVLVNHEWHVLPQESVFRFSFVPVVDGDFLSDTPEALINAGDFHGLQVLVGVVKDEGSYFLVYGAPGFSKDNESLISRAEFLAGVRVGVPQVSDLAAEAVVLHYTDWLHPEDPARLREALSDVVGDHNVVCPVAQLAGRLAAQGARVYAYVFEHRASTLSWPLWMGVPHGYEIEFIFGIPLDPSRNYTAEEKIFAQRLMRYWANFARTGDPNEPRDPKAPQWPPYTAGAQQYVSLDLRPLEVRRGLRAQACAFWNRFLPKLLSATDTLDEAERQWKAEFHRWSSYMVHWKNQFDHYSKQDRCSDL

CCCC1O[C@@H]2C[C@H]3[C@@H]4CCC5=CC(=O)C=C[C@]5(C)[C@H]4[C@@H](O)C[C@]3(C)[C@]2(C(=O)CO)O1 (some centres not stated) [BUDESONIDE]
Not Active: IC50 [1] | IC50 [2] | IC50 [3] | Ki [3] | IC50 [4] | IC50 (Acetylcholinesterase) | IC50 [5] | Ki [5] | IC50 [6] | Ki [6] | IC50 (Adenosine receptor A1) | IC50 (Endothelin-1 receptor)

CC1Cc2ccccc2N1NC(=O)c1ccc(Cl)c(S(N)(=O)=O)c1 (configuration not stated) [INDAPAMIDE]
Not Active: IC50 [1] | IC50 [2] | IC50 [3] | Ki [3] | IC50 [4] | IC50 (Acetylcholinesterase) | IC50 [5] | Ki [5] | IC50 [6] | Ki [6] | IC50 (Adenosine receptor A1) | IC50 (Endothelin-1 receptor)

CCC1(c2ccc(N)cc2)CCC(=O)NC1=O (configuration not stated) [AMINOGLUTETHIMIDE]
Not Active: IC50 [1] | IC50 [2] | IC50 [3] | Ki [3] | IC50 [4] | IC50 (Acetylcholinesterase) | IC50 [5] | Ki [5] | IC50 [6] | Ki [6] | IC50 (Adenosine receptor A1) | IC50 (Endothelin-1 receptor)

CNCCCN1c2ccccc2CCc2ccccc21 [DESIPRAMINE]
Not Active: IC50 [1] | IC50 [2] | IC50 [3] | Ki [3] | IC50 [4] | IC50 (Acetylcholinesterase) | IC50 [5] | Ki [5] | IC50 [6] | Ki [6] | IC50 (Adenosine receptor A1) | IC50 (Endothelin-1 receptor)

Cc1ccccc1N1C(=O)c2cc(S(N)(=O)=O)c(Cl)cc2NC1C (configuration not stated) [METOLAZONE]
Not Active: IC50 [1] | IC50 [2] | IC50 [3] | Ki [3] | IC50 [4] | IC50 (Acetylcholinesterase) | IC50 [5] | Ki [5] | IC50 [6] | Ki [6] | IC50 (Adenosine receptor A1) | IC50 (Endothelin-1 receptor)

C1CCC(C(CC2CCCCN2)C2CCCCC2)CC1 (configuration not stated) [PERHEXILINE]
Not Active: IC50 [1] | IC50 [2] | IC50 [3] | Ki [3] | IC50 [4] | IC50 (Acetylcholinesterase) | IC50 [5] | Ki [5] | IC50 [6] | Ki [6] | IC50 (Adenosine receptor A1) | IC50 (Endothelin-1 receptor)

N=C(N)NCCN1CCCCCCC1 [GUANETHIDINE]
Not Active: IC50 [1] | IC50 [2] | IC50 [3] | Ki [3] | IC50 [4] | IC50 (Acetylcholinesterase) | IC50 [5] | Ki [5] | IC50 [6] | Ki [6] | IC50 (Adenosine receptor A1) | IC50 (Endothelin-1 receptor)

CC(C)CN(C[C@@H](O)[C@H](Cc1ccccc1)NC(=O)O[C@H]1CCOC1)S(=O)(=O)c1ccc(N)cc1
Not Active: IC50 [1] | IC50 [2] | IC50 [3] | Ki [3] | IC50 [4] | IC50 (Acetylcholinesterase) | IC50 [5] | Ki [5] | IC50 [6] | Ki [6] | IC50 (Adenosine receptor A1) | IC50 (Endothelin-1 receptor)

O=c1[nH]c(=O)n([C@H]2C[C@H](O)[C@@H](CO)O2)cc1I [IDOXURIDINE]
Not Active: IC50 [1] | IC50 [2] | IC50 [3] | Ki [3] | IC50 [4] | IC50 (Acetylcholinesterase) | IC50 [5] | Ki [5] | IC50 [6] | Ki [6] | IC50 (Adenosine receptor A1) | IC50 (Endothelin-1 receptor)

C[C@H](CCC(=O)O)[C@H]1CC[C@H]2[C@@H]3[C@H](O)C[C@@H]4C[C@H](O)CC[C@]4(C)[C@H]3C[C@H](O)[C@]12C [CHOLIC ACID]
Not Active: IC50 [1] | IC50 [2] | IC50 [3] | Ki [3] | IC50 [4] | IC50 (Acetylcholinesterase) | IC50 [5] | Ki [5] | IC50 [6] | Ki [6] | IC50 (Adenosine receptor A1) | IC50 (Endothelin-1 receptor)

O=C(CCCN1CC=C(n2c(=O)[nH]c3ccccc32)CC1)c1ccc(F)cc1 [DROPERIDOL]
Not Active: IC50 [1] | IC50 [2] | IC50 [3] | Ki [3] | IC50 [4] | IC50 (Acetylcholinesterase) | IC50 [5] | Ki [5] | IC50 [6] | Ki [6] | IC50 (Adenosine receptor A1) | IC50 (Endothelin-1 receptor)
